Reference: patent publication US20250221966A1, “RXFP1 AGONISTS” (BRISTOL-MYERS SQUIBB COMPANY, priority 2021, published 2025)

Target: T1, human RXFP1 (Homo sapiens, UniProt Q9HBX9)
T1 construct: expressed in transfected cells
T1 sequence (Q9HBX9 1-757): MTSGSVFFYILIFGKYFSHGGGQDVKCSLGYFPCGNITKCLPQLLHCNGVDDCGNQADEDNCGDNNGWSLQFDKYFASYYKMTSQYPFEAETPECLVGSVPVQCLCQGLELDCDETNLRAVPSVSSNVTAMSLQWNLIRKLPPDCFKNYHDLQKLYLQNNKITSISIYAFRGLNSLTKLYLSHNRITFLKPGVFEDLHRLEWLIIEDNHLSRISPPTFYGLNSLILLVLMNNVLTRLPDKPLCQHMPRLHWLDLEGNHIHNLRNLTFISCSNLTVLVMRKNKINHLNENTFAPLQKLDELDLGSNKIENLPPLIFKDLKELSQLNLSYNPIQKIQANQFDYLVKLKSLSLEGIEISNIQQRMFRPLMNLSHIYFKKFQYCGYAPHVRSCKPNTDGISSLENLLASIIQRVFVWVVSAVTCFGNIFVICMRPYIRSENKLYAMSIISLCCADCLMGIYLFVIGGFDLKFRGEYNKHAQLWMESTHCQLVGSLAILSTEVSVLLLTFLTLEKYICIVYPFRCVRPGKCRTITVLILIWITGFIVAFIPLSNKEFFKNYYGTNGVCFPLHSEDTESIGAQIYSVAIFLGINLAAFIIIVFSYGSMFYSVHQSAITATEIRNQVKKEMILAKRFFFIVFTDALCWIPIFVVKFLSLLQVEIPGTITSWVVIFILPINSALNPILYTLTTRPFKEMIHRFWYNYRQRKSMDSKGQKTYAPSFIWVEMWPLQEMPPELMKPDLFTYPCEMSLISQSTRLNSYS
Assay: RXFP1 cAMP assay (hRXFP1 HEK293 cAMP assay, HTRF)
Format: cell-based
Conditions: HEK293 cells stably expressing human RXFP1, 30 min at room temperature, read-out: cAMP hRXFP1 HEK293 Assay EC50
Procedure, shortened: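 hRXFP1-HEK293 stable line; HBSS + Ca/Mg, 20 mM HEPES, 0.05% BSA, 0.5 mM IBMX; cpd 0.010 nM–50 μM, 2% DMSO; 30 min RT; lysis, HTRF cAMP detection; 4-PL fit.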

| SMILES | EC50 |
| --- | --- |
| COc1ccc(C2CCCN2)cc1C(=O)N[C@@H]1C2CCC(C2=CC2CC2)[C@@H]1C(=O)Nc1ccc(F)c(C(F)(F)F)c1 (stereo partly drawn) [compound 703] | 1190 nM |
| COc1cc(F)c(F)cc1C(=O)N[C@@H]1C2CCC(/C2=C/c2cc(C)cc(C)c2)[C@@H]1C(=O)Nc1ccc(F)c(C(F)(F)F)c1 (stereo partly drawn) [compound 60] | 920 nM |
| COc1ccc(-c2cc(C(C)O)on2)cc1C(=O)N[C@@H]1C2CCC(/C2=C/C2CC2)[C@@H]1C(=O)Nc1ccc(F)c(C(F)(F)F)c1 (stereo partly drawn) [compound 424] | 11 nM |
| COc1ccc(-c2cc(C(OC(=O)NC3COC3)C(F)(F)F)ccc2F)cc1C(=O)N[C@@H]1C2CCC(/C2=C/C2CC2)[C@@H]1C(=O)Nc1ccc(F)c(C(F)(F)F)c1 (stereo partly drawn) [compound 218] | 2 nM |
| COc1ccc(-c2cc(C(NC(=O)C3CCOCC3)C(=O)O)ccc2F)cc1C(=O)N[C@H]1[C@@H](C(=O)Nc2ccc(F)c(C(F)(F)F)c2)[C@H]2CC[C@@H]1/C2=C\C1CC1 (stereo partly drawn) [Example 238, 2-(3′-(((1R,2R,3S,4R,Z)-7-(cyclopropylmethylene)-3-((4-fluoro-3-(trifluoromethyl)phenyl)carbamoyl)bicyclo[2.2.1]heptan-2-yl)carbamoyl)-6-fluoro-4′-methoxy-[1,1′-biphenyl]-3-yl)-2-(tetrahydro-2H-pyran-4-carboxamido)acetic acid] | 1 nM |
| COc1c(F)cc(-c2cc([C@H](OC(=O)NC3CCC3)C(F)(F)F)ccc2F)cc1C(=O)N[C@H]1[C@@H](C(=O)N[C@H](C)C2(C)CC2)[C@H]2CC[C@@H]1/C2=C\C1CC(F)(F)C1 [compound 970] | 2 nM |
| COc1ccc(C2=NOC3CNCC23)cc1C(=O)N[C@H]1[C@@H](C(=O)Nc2ccc(F)c(C(F)(F)F)c2)[C@H]2CC[C@@H]1/C2=C\C1CC1 (stereo partly drawn) [Example 437, (1R,2S,3R,4R,Z)-7-(cyclopropylmethylene)-N-(4-fluoro-3-(trifluoromethyl)phenyl)-3-(2-methoxy-5-(3a,5,6,6a-tetrahydro-4H-pyrrolo[3,4-d]isoxazol-3-yl)benzamido)bicyclo[2.2.1]heptane-2-carboxamide] | 31 nM |
| COc1c(F)cc(C2=NOC3CC(CO)CC23)cc1C(=O)N[C@H]1[C@@H](C(=O)N[C@H](C)C2(C)CC2(F)F)[C@H]2CC[C@@H]1/C2=C\C1CC1 (stereo partly drawn) [compound 759] | 1 nM |
| COc1ccc(-c2cc(C(C)O)ccc2F)cc1C(=O)N[C@@H]1C2CCC(/C2=C/C2CC2)[C@@H]1C(=O)Nc1ccc(F)c(C(F)(F)F)c1 (stereo partly drawn) [compound 248] | 4 nM |
| CCC(NC(=O)[C@@H]1[C@H](NC(=O)c2cc(C3=NOC4COCC34)ccc2OC)[C@@H]2CC[C@H]1/C2=C/C1CC1)c1ccccc1C (single isomer, unassigned) [compound 652] | 278 nM |
| COc1c(C)cc(C2=NOC3CC(CO)CC23)cc1C(=O)N[C@H]1[C@@H](C(=O)Nc2ccc(F)c(C(F)(F)F)c2)[C@H]2CC[C@@H]1/C2=C\C1CC1 (stereo partly drawn) [compound 797] | 4.1 nM |
| COc1ccc(-c2cc(C(=O)NCC(=O)O)ccc2F)cc1C(=O)N[C@@H]1C2CCC(C2=C(C)C)[C@@H]1C(=O)Nc1ccc(F)c(C(F)(F)F)c1 (stereo partly drawn) [compound 193] | 300 nM |
| CN(C)c1c(Cl)cc(C2=NOC3COCC23)cc1C(=O)N[C@H]1[C@@H](C(=O)Nc2ccc(F)c(C(F)(F)F)c2)[C@H]2CC[C@@H]1/C2=C\C(F)(F)F (single isomer, unassigned) [compound 670] | 448 nM |
| COc1ccc(-c2cc(C(OC(=O)Nc3cccc(F)c3)C(F)(F)F)ccc2F)cc1C(=O)N[C@@H]1C2CCC(/C2=C/C2CC2)[C@@H]1C(=O)Nc1ccc(F)c(C(F)(F)F)c1 (stereo partly drawn) [compound 228] | 3 nM |
| CCC=C1C2CCC1[C@H](C(=O)Nc1ccc(F)c(C(F)(F)F)c1)[C@@H]2NC(=O)c1cc(F)c(F)cc1OC (stereo partly drawn) [compound 47] | 47 nM |
| COc1ccc(-c2cc(C(=O)NS(C)(=O)=O)ccc2F)cc1C(=O)N[C@@H]1C2CCC(/C2=C/Br)[C@@H]1C(=O)Nc1ccc(F)c(C(F)(F)F)c1 (stereo partly drawn) [compound 161] | 110 nM |
| COc1ccc(-c2cc(C(=O)NS(=O)(=O)C3CC3)ccc2F)cc1C(=O)N[C@@H]1C2CCC(C2=C(C)C)[C@@H]1C(=O)Nc1ccc(F)c(C(F)(F)F)c1 (stereo partly drawn) [compound 157] | 610 nM |
| COc1cc(F)c(F)cc1C(=O)N[C@@H]1C2CCC(/C2=C/C(=O)Nc2ccccc2)[C@@H]1C(=O)Nc1ccc(F)c(C(F)(F)F)c1 (stereo partly drawn) [Example 34] | 4600 nM |
| COc1ccc(C2=NOC3COCC23)cc1C(=O)N[C@H]1[C@@H](C(=O)NCc2cccc(Cl)c2Cl)[C@H]2CC[C@@H]1/C2=C\C1CC1 (stereo partly drawn) [compound 582] | 74.9 nM |
| COc1ccc(-c2cc(C(NC(=O)C3CCOCC3)C(=O)O)ccc2F)cc1C(=O)N[C@H]1[C@@H](C(=O)Nc2ccc(F)c(C(F)(F)F)c2)[C@H]2CC[C@@H]1/C2=C\CCC(F)(F)F (stereo partly drawn) [compound 940] | 4.1 nM |

| SMILES | EC50 |
| --- | --- |
| COc1ccc(-c2ccc(F)nc2F)cc1C(=O)N[C@H]1[C@@H](C(=O)Nc2ccc(F)c(C(F)(F)F)c2)[C@H]2CC[C@@H]1C2=C(C)C [compound 106] | 2700 nM |
| COc1ccc(-c2cc(C(=O)N3CCC(O)CC3)on2)cc1C(=O)N[C@H]1[C@@H](C(=O)Nc2ccc(F)c(C(F)(F)F)c2)[C@H]2CC[C@@H]1/C2=C\C1CC1 [Example 594] | 91.4 nM |
| COc1cc(F)c(F)cc1C(=O)N[C@@H]1C2CCC(/C2=C/C=C/CCO)[C@@H]1C(=O)Nc1ccc(F)c(C(F)(F)F)c1 (stereo partly drawn) [compound 67] | 1700 nM |
| COc1ccc(C2CCN(C(=O)C(C)(C)O)C2)cc1C(=O)N[C@H]1[C@@H](C(=O)Nc2ccc(F)c(C(F)(F)F)c2)[C@H]2CC[C@@H]1/C2=C\C1CC1 (single isomer, unassigned) [Example 449] | 1.6 nM |
| COc1ccc(Br)cc1C(=O)N[C@@H]1C2CCC(/C2=C\c2ccccc2)[C@@H]1C(=O)Nc1ccc(F)c(C(F)(F)F)c1 (stereo partly drawn) [Example 78] | 1900 nM |
| COc1ccc(C2=NOC3CC(C(=O)O)CC23)cc1C(=O)N[C@H]1[C@@H](C(=O)Nc2ccc(F)c(C(F)(F)F)c2)[C@H]2CC[C@@H]1/C2=C\C1CC1 (stereo partly drawn) [compound 851] | 2.8 nM |
| COc1ccc(-c2cnn3c2COCC3)cc1C(=O)N[C@H]1[C@@H](C(=O)N[C@H](C)C2(C)CC2)[C@H]2CC[C@@H]1/C2=C\C1CC1 [compound 745] | 1.2 nM |
| CN(C)c1c(Cl)cc(C2=NOC3COCC23)cc1C(=O)N[C@H]1[C@@H](C(=O)Nc2ccc(F)c(C(F)(F)F)c2)[C@H]2CC[C@@H]1/C2=C\C1CC1 (single isomer, unassigned) [compound 474] | 5 nM |
| COc1cc(C(=O)N[C@H]2[C@@H](C(=O)Nc3ccc(F)c(C(F)(F)F)c3)[C@H]3CC[C@@H]2/C3=C\C2CC2)cc(C2=NOC3COCC23)c1 (single isomer, unassigned) [compound 602] | 110 nM |
| COc1ccc(C2CCCN2C(=O)CCO)cc1C(=O)N[C@@H]1C2CCC(C2=CC2CC2)[C@@H]1C(=O)Nc1ccc(F)c(C(F)(F)F)c1 (stereo partly drawn) [compound 634] | 191 nM |
| COc1ccc(C2=NOC(CO)C2)cc1C(=O)N[C@@H]1C2CCC(/C2=C/C2CC2)[C@@H]1C(=O)Nc1ccc(F)c(C(F)(F)F)c1 (stereo partly drawn) [compound 381] | 20 nM |
| COc1ccc(-c2cc(C(=O)O)ccc2F)cc1C(=O)N[C@@H]1C2CCC(/C2=C/C2CC2)[C@@H]1C(=O)NC(C)c1cc(F)ccc1F (stereo partly drawn) [compound 307] | 958 nM |
| COc1ccc(-c2cc([C@H](OC(=O)NC3CCC3)C(=O)O)ccc2F)cc1C(=O)N[C@H]1[C@@H](C(=O)Nc2ccc(F)c(C(F)(F)F)c2)[C@H]2CC[C@@H]1/C2=C\CC(C)C [compound 937] | 5.8 nM |
| COc1ccc(-c2cc([C@@H](NC(=O)C3CCOCC3)C(F)(F)F)ccc2F)cc1C(=O)N[C@H]1[C@@H](C(=O)Nc2ccc(F)c(C(F)(F)F)c2)[C@H]2CC[C@@H]1/C2=C\C1CCCC1 [compound 956] | 6.1 nM |
| COc1ccc(C2=NOC(COCCO)C2)cc1C(=O)N[C@H]1[C@@H](C(=O)Nc2ccc(F)c(C(F)(F)F)c2)[C@H]2CC[C@@H]1/C2=C\C1CC1 (stereo partly drawn) [compound 546] | 32.1 nM |
| COc1ccc(C2=NOC3C4CC(C(O)C4O)C23)cc1C(=O)N[C@H]1[C@@H](C(=O)Nc2ccc(F)c(C(F)(F)F)c2)[C@H]2CC[C@@H]1/C2=C\C1CC1 (single isomer, unassigned) [Example 448] | 1.2 nM |
| COc1ccc(C2=NOC3COCC23)cc1C(=O)N[C@H]1[C@@H](C(=O)NCc2ccccc2OC(F)(F)F)[C@H]2CC[C@@H]1/C2=C\C1CC1 (stereo partly drawn) [compound 588] | 82 nM |
| COc1ccc(N2CCCS2(=O)=O)cc1C(=O)N[C@@H]1C2CCC(/C2=C/C2CC2)[C@@H]1C(=O)Nc1ccc(F)c(C(F)(F)F)c1 (stereo partly drawn) [compound 372] | 12 nM |
| COc1ccc(-c2ccc(C(CC(=O)O)C(F)(F)F)cc2F)cc1C(=O)N[C@H]1[C@@H](C(=O)Nc2ccc(F)c(C(F)(F)F)c2)[C@H]2CC[C@@H]1/C2=C\C1CCCC1 (stereo partly drawn) [compound 891] | 3.7 nM |
